pKi: −log10 of the molar value. Structures can show the parent of a compound that is named as a salt.

What is called pKi is −log10 of the Ki, conventionally taken in molar units.

T1 sequence (Q865E1 1-445): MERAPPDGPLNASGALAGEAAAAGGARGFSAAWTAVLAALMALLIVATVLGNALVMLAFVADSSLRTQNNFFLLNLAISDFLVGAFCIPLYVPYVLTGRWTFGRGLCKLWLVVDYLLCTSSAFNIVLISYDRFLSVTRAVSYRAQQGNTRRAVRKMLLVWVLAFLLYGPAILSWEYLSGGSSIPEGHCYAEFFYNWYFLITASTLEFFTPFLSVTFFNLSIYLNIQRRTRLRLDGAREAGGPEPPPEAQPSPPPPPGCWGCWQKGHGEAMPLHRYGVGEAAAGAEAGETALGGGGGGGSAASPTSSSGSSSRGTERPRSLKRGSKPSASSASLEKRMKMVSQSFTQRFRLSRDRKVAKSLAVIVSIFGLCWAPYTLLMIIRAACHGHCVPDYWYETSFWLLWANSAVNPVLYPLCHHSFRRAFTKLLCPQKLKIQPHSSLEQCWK

The experiment has as its target T1, rhesus (Macacca Mulatta) H3 receptor (Macaca mulatta, UniProt Q865E1).
T1 construct: pcDNA5/FRT/TO (Invitrogen) containing the rhesus monkey (Macacca Mulatta) 445 amino acid H3 receptor
The experiment can be described thus: Rhesus H3 radioligand binding assay ([3H]-Methylhistamine displacement, WGA SPA beads). Details: species or system rhesus monkey (Macacca Mulatta). The note with it: [3H]-Methylhistamine 2 nM, rhesus H3 membranes, 25° C., 1 hour; Cheng-Prusoff. As to the method: Rhesus H3 membranes were prepared from the Flp-In T-REx 293 Cell Line (Invitrogen) stably transfected with pcDNA5/FRT/TO (Invitrogen) containing the rhesus monkey (Macacca Mulatta) 445 amino acid H3 receptor. (Genbank #AY231164). Stably transfected cultures were amplified in tissue culture flasks by standard tissue culture methods and induced to express rhesus H3 by exposure to 500 ng/ml tetracycline (Cellgro) for 24 hours. After induction, cells were dissociated from flasks utilizing Cell Stripper (Cellgro). Cells were centrifuged (1 K×g, 5 min) and pellet frozen in an ethanol-dry ice bath to disrupt cell membranes. Frozen cell pellet was re-suspended in 5 mM HEPES (pH 7.4, Invitrogen) at 10ml/1000 cm2 of harvested cells. The cell suspension was drawn through an 18 gauge needle (2-3×) followed by a 23 gauge needle (2-3×) to further disrupt cell membranes. The cell suspension was centrifuged (40K×g, 30 min). Cell membrane pellet was re-suspended in 5 mM HEPES (pH 7.4, Invitrogen) at a final protein concentration of 10 mg/ml. Rhesus H3 membranes were stored under liquid nitrogen prior to use in [3H]-Methylhistamine and GTPγS radioligand binding assays.
Rhesus H3 radioligand binding assay was performed using rhesus H3 receptor membranes (prepared as described above), [3H]-Methylhistamine (Perkin Elmer) and WGA SPA beads (wheat germ agglutinin scintillation proximity assay) beads (Amersham). The assay was performed in 96-well Opti-Plates (Packard). Each reaction contained 50 μl rhesus H3 membranes (20-30 μg total protein), 50 μl WGA SPA beads (0.1 μg) and 50 μl of 83Ci/mmol [^3H]-Methylhistamine (final concentration 2 nM) and 50 μl of tested compound. The compounds of this invention and/or vehicle were diluted with binding buffer from 10 mM DMSO stocks. Assay plates were sealed with TopSeal (Perkin Elmer) and mixed on shaker (25° C., 1 hour). Assay plates were read on TopCount scintillation counter (Packard). Results were analyzed by Hill transformation and Ki values were determined by Cheng-Prusoff equation.
On to `Cc1cc(N2CC[C@H](N3CCC[C@@H]3C)C2)ccc1N1CCC2(CCC(O)CC2)C1=O` (single isomer, unassigned) [Example 11], for which the pKi is 7.46.
Molecule `Cc1cc(N2CCC(N3CCC[C@@H]3C)CC2)ccc1N1CCC2(CCCCC2)C1=O` [Example 1, 2-{2-Methyl-4-[4-((S)-2-methyl-pyrrolidin-1-yl)-piperidin-1-yl]-phenyl}-2-aza-spiro[4.5]decan-1-one trifluoroacetate] showed a pKi of 9.32.
For the molecule `Cc1cc(N2CCC(N3CCC[C@@H]3C)CC2)ccc1N1CCCC2(CCCC2)C1=O` [Example 2, 7-{2-Methyl-4-[4-((S)-2-methyl-pyrrolidin-1-yl)-piperidin-1-yl]-phenyl}-7-aza-spiro[4.5]decan-6-one trifluoro-acetic acid salt], the negative-log Ki (pKi) is 7.90.
For `Cc1cc(N2CCC(N3CCC[C@@H]3C)CC2)ccc1N1CCC2(CCC(O)CC2)C1=O` (stereo partly drawn) [Example 3, 8-Hydroxy-2-{2-methyl-4-[4-((S)-2-methyl-pyrrolidin-1-yl)-piperidin-1-yl]-phenyl}-2-aza-spiro[4.5]decan-1-one], the pKi is 7.51.
Then `C[C@H]1CCCN1C1CCN(c2ccc(N3CCC4(CCCCC4)C3=O)c(N)c2)CC1` [Example 4, 2-{2-Amino-4-[4-((S)-2-methyl-pyrrolidin-1-yl)-piperidin-1-yl]-phenyl}-2-aza-spiro[4.5]decan-1-one trifluoro-acetate], with 7.94.
In the case of `Cc1cc(N2CCC(N3CCC[C@@H]3C)CC2)ccc1N1CCC2(CCC(C(=O)O)CC2)C1=O` (stereo partly drawn) [Example 5, 2-{2-Methyl-4-[4-((S)-2-methyl-pyrrolidin-1-yl)-piperidin-1-yl]-phenyl}-1-oxo-2-aza-spiro[4.5]decane-8-carboxylic acid] it was 7.24.
Then `C[C@H]1CCCN1[C@@H]1CCN(c2ccc(N3CCC4(CCCCC4)C3=O)c(N)c2)C1` [Example 6, 2-[2-Amino-4-((2S,3′R)-2-methyl-[1,3′]bipyrrolidinyl-1′-yl)-phenyl]-2-aza-spiro[4.5]decan-1-one trifluoro-acetic acid salt], with 7.45.
The molecule `C[C@H]1CCCN1[C@H]1CCN(c2ccc(N3CCC4(CCCCC4)C3=O)cc2)C1` [Example 7, 2-[4-((2S,3′S)-2-Methyl-[1,3′]bipyrrolidinyl-1′-yl)-phenyl]-2-aza-spiro[4.5]decan-1-one] had a negative-log Ki (pKi) of 8.19.
On to `Cc1cc(N2CC[C@H](N3CCC[C@@H]3C)C2)ccc1N1CCC2(CCCCC2)C1=O` [Example 8, 2-[2-Methyl-4-((2S,3′S)-2-methyl-[1,3]bipyrrolidinyl-1′-yl)-phenyl]-2-aza-spiro[4.5]decan-1-one], for which the negative-log Ki (pKi) was 7.97.
Molecule `C[C@H]1CCCN1[C@H]1CCN(c2ccc(N3CCC4(CCCCC4)C3=O)c(F)c2)C1` [Example 9, 2-[2-Fluoro-4-((2S,3′S)-2-methyl-[1,3′]bipyrrolidinyl-1′-yl)-phenyl]-2-aza-spiro[4.5]decan-1-one] gave a negative logarithm of the Ki (pKi) of 7.38.
Then `COc1cc(N2CC[C@H](N3CCC[C@@H]3C)C2)ccc1N1CCC2(CCCCC2)C1=O` [Example 10], with 8.58.

These data come from patent publication US20130059874A1, “SUBSTITUTED N-PHENYL SPIROLACTAM BIPYRROLIDINES, PREPARATION AND THERAPEUTIC USE THEREOF” (SANOFI, priority 2010, published 2013).
